Patent US5001158A, “Nitrosoureas compounds preparation thereof and utilization thereof in anticancerous” (Centre National de la Recherche Scientifique, priority 1990, dated 1991)

Columns and labels:
Assay type in all cases: in vivo, mice (male B6 D2 F1 /OLA)
leukemia strain L1210 = assay: Antitumoral activity on leukemia L1210 i.p. in mice, unoxidized compounds (ICIG); settings: for survival rate after 60 days: at different doses; for I indices (in words): i.p., leukemia L1210
Method: The oncostatic activity of these nitrosated derivatives was determined at the I.C.I.G. in VILLEJUIF (Department of Prof. MATHE) following a described experimental protocol: M. HAYAT et al , Cancer Chemother. Pharmacol., 1979, 3, 217-221; R. MARAL et al., Eur. J. Med. Chem., submitted for publication.
(§1) Male B6 D2 F1 /OLA mice are inoculated intraperitoneally with 10^5 cells of the leukemia strain L1210 on day 0 and divided into groups. The first is the control group and the others are treated with the drugs at different concentrations on days 1, 5 and 9. The compounds are injected as a suspension in olive oil. The mortality of the animals is observed and the autopsy indicates whether it is due to leukemia or to the toxic action of the products.
(§2) The 50% lethal dose (LD50 acute) is determined by taking into account the mortality which has occurred before the 8th day among the animals treated on day D:1. The survival median of the treated animals (mT) and the control animals (mC) was established and Wilcoxon's non-parametric statistical test was applied. The results are considered positive if the index I [formula] is greater than 125 and the test Is significant at p≤0.05.

[1] = 50% lethal dose (LD50 acute) in mice; settings: mouse, in vivo, ip, mortality before the 8th day
Method: as §1, §2

mice = assay: 50% lethal dose (LD50 acute) in mice; settings: i.p.
Method: as §1, §2

| SMILES | % of animals surviving to 60 days (leukemia strain L1210; 5 mg/kg i.p., days 1,5,9) | index I (survival median treated vs control) (leukemia strain L1210; 5 mg/kg i.p., days 1,5,9) | % of animals surviving to 60 days (leukemia strain L1210; 10 mg/kg i.p., days 1,5,9) | index I (survival median treated vs control) (leukemia strain L1210; 10 mg/kg i.p., days 1,5,9) | % of animals surviving to 60 days (leukemia strain L1210; 12.5 mg/kg i.p., days 1,5,9) | index I (survival median treated vs control) (leukemia strain L1210; 12.5 mg/kg i.p., days 1,5,9) | % of animals surviving to 60 days (leukemia strain L1210; 15 mg/kg i.p., day +1) | index I (survival median treated vs control) (leukemia strain L1210; 15 mg/kg i.p., day +1) | survival rate after 60 days (leukemia strain L1210) | I indices (in words) (leukemia strain L1210) | LD50 [1] | % of animals surviving to 60 days (leukemia strain L1210; 15 mg/kg i.p., days 1,5,9) | % of animals surviving to 60 days (leukemia strain L1210; 20 mg/kg i.p., days 1,5,9) | toxicity (in words) (mice) |
| --- | --- | --- | --- | --- | --- | --- | --- | --- | --- | --- | --- | --- | --- | --- |
| O=NN(CCCl)C(=O)NCCS [(1), N-[N-(2-Chloroethyl)-N-nitrosocarbamoyl]cysteamine] | 100% | .infin. (50% or more of the animals survive to day +60) | 100% | .infin. (50% or more of the animals survive to day +60) | 100% | .infin. (50% or more of the animals survive to day +60) | 100% | .infin. (50% or more of the animals survive to day +60) | 100% | at infinity | 19 to 25 mg/kg |  |  |  |
| CSCCNC(=O)N(CCCl)N=O [(3), S-methyl-N-[N-(2-chloroethyl)-N-nitrosocarbamoyl] cysteamine] |  | .infin. (50% or more of the animals survive to day +60) |  |  | 100% | .infin. (50% or more of the animals survive to day +60) |  |  | 100% | at infinity | 19 to 25 mg/kg | 87% |  |  |
| CC(=O)SCCNC(=O)N(CCCl)N=O [(5), S-acetyl-N-[N-(2-chloroethyl)-N-nitrosocarbamoyl] cysteamine] |  |  | 14% | .infin. (50% or more of the animals survive to day +60) | 100% | .infin. (50% or more of the animals survive to day +60) |  |  | 100% | at infinity | 19 to 25 mg/kg | 80% | 25% |  |
| O=NN(CCCl)C(=O)NCCSC(c1ccccc1)(c1ccccc1)c1ccccc1 [(9), S-Trityl-N-[N-(2-chloroethyl)-N-nitrosocarbamoyl]cysteamine] |  |  |  |  |  |  |  |  |  |  | > 625 mg/kg |  |  | not toxic |
